Values joined by “and” are separate entries in the source; they are usually repeats but may differ in a detail not shown here. Equal values may be shown once. Read-outs that look alike come from different tables or passages of the source. Blank lines part the entries; values can stand above or below the compound they belong to.
Tests used:
[1] = molecular target: Firefly luciferase (Fluc, EC 1.13.12.7) (Photinus pyralis, UniProt P08659); assay: biochemical; design: single determination (the paper says generally: 'qHTS assays were performed in a single replicate with a 7- to 11-point dose response format'; it is not stated for this counterscreen itself)
Sequence of Firefly luciferase (Fluc, EC 1.13.12.7) (P08659 whole entry): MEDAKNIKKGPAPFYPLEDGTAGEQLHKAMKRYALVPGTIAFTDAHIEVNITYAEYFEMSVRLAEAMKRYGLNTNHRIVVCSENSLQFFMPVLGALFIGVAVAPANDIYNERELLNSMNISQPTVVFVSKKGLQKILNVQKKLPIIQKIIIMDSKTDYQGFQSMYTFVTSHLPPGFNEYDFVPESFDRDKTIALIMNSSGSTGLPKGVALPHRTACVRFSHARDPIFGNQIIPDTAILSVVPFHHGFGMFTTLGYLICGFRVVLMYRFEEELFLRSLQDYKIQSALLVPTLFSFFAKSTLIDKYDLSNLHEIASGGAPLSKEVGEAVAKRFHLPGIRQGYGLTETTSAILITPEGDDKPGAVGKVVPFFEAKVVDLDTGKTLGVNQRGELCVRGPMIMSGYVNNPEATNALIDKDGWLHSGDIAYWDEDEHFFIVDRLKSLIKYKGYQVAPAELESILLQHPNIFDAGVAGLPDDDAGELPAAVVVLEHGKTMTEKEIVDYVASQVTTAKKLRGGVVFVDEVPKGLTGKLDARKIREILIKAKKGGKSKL

[2] = test system: Plasmodium falciparum Dd2 asexual blood stage parasites; assay: microbe, parasite or virus in culture; design: species or system Plasmodium falciparum Dd2 in human erythrocytes; single determination (one 11-point concentration-response curve); conditions: Plasmodium falciparum, DD2, Erythrocyte, 72 h; read-out: AC50
[3] = test system: P. falciparum Dd2 Cytb G131S; assay: SYBR Green ABS proliferation assay, NCGC00374598 selected clone C11; format: cell-based, Plasmodium falciparum; conditions: Plasmodium falciparum, DD2, […]; averaged from three independent replicates; top concentration 29 µM; read-out: Average AC50 (Log[M]), NCGC00374598 clone C11 (Cytb G131S) (converted)
Outline: (§1)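 72 h SYBR Green-I read; % response = relative growth vs controls. Clones from resistance selection, cloned by limiting dilution; 37 °C, 5% CO2/5% O2/90% N2.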

[4] = test system: T1, Plasmodium falciparum Dd2-attB (parental line), asexual blood stages; assay: microbe, parasite or virus in culture; design: replicate k of 3 (each line is one of three independent assays; the three lines of one compound and parasite line follow each other); conditions: n = 1; for Individual replicates / Log AC50 (M): 72 h; for AC50: Plasmodium falciparum, DD2, 72 h, read-out: Individual replicates / Log AC50 (converted)
T1 construct: Dd2-attB, the isogenic parental line
Outline: (§2)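 Only some compounds were profiled here. Each was assayed three independent times against the Dd2-attB parent and its yeast-DHODH-overexpressing derivative.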

[5] = test system: P. falciparum Dd2 Cytb A122D; assay: SYBR Green ABS proliferation assay, NCGC00473217 selected clone F12; format: cell-based, Plasmodium falciparum; conditions: Plasmodium falciparum, DD2, […]; averaged from three independent replicates; top concentration 29 µM; read-out: Average AC50 (Log[M]), NCGC00473217 clone F12 (Cytb A122D) (converted)
Outline: as §1

[6] = test system: P. falciparum Dd2 (clone B2) asexual blood stage parasites; assay: P. falciparum Dd2 asexual blood stage SYBR Green-I 72 h proliferation assay (qHTS); format: cell-based, Plasmodium falciparum; conditions: Plasmodium falciparum, DD2, Dd2 parental; Hill fit, averaged from three independent replicates; top concentration 29 µM; read-out: Average AC50 (Log[M]), Dd2 (converted)
[7] = test system: P. falciparum Dd2 Cytb V259L; assay: SYBR Green ABS proliferation assay, NCGC00473217 selected clone F06; format: cell-based, Plasmodium falciparum; conditions: Plasmodium falciparum
Outline: as §1

[8] = test system: P. falciparum Dd2 Cytb F123L; assay: SYBR Green ABS proliferation assay, NCGC00473217 selected clone G08; format: cell-based, Plasmodium falciparum; conditions: Plasmodium falciparum
Outline: as §1

[9] = test system: T1, Plasmodium falciparum Dd2-attB (parental line), asexual blood stages; assay: microbe, parasite or virus in culture; design: species or system P. falciparum Dd2-attB in human erythrocytes; SYBR Green-I proliferation assay, Dd2-attB parental line, asexual blood stages; conditions: Plasmodium falciparum, DD2, Erythrocyte, 72 h, read-out: Calculated / Average Log AC50 (M), mean of replicates, 72 h (converted)
[10] = test system: T2, Plasmodium falciparum Dd2-attB-ScDHODH (transgenic line expressing yeast DHODH), asexual blood stages; assay: organism not typed; design: replicate k of 3 (each line is one of three independent assays; the three lines of one compound and parasite line follow each other); conditions: 72 h, n = 1
T2 construct: Dd2-attB-ScDHODH, the transgenic line that expresses yeast DHODH
Outline: as §2

[11] = test system: P. berghei-ANKA-GFP-LucCON liver stage parasites in HepG2-A16-CD81EGFP cells; assay: P. berghei liver stage Pb-Luc assay, Method 1 (UCSD, 1536-well); format: cell-based, Plasmodium berghei; conditions: Method 1
[12] = test system: luciferase-expressing P. berghei liver stage parasites in HepG2 cells; assay: Inhibition of liver-stage development assay (ILSDA), Method 2 (WRAIR, 96-well); format: cell-based, Plasmodium berghei; conditions: Method 2; Decrease = decreasing P. berghei viability with dose, Increase = increasing signal, Inactive = no dose response

AC50 [1]: 0.0136 µM
SMILES: C/C(=N\OCc1cccc(C(=O)O)c1)c1ccc(Cl)cc1 [MLS000850591-01]

AC50 [1]: 4.3 µM
SMILES: Cc1ccc(C(=O)NCCn2c(C)cc3ccccc32)cc1C [NCGC00107199-01]

AC50 [1]: 10.8 µM
SMILES: CC1(C)Cc2nc3sc4c(SCC(=O)O)ncnc4c3cc2CO1 [MLS000778156-01]

AC50 [1]: 15.2 µM
SMILES: CCc1ccc2oc(-c3cccc(NC(=O)c4ccc(-c5cccc([N+](=O)[O-])c5)o4)c3)nc2c1 [NCGC00102150-01]

AC50 [1]: 11.1 µM
SMILES: O=C1c2cnc(-c3cc4ccccc4o3)nc2OCCN1Cc1ccccc1 [NCGC00413600-01]

AC50 [1]: 13.6 µM
SMILES: Cc1cc(C(N)=NOC(=O)c2ccccc2Cl)no1 [MLS000833967-01]

AC50 [1]: 0.0341 µM
SMILES: Cc1cn2c(=O)cc(COC(=O)c3cccc(NC(=O)COc4ccccc4Cl)c3)nc2s1 [NCGC00130619-01]

AC50 [1]: 21.5 µM
SMILES: CCOc1ccc(NC(=O)c2ccc3c(c2)N(C)C2CCCN2C3=O)cc1 (stereo not shown) [NCGC00452128-01]

The remaining lines, values behind:

SMILES: N#CC(=C1CCCC1)c1nc(-c2ccccc2O)cs1 [MLS000034824-01]
AC50 [1]: 19.2 µM
AC50 [2]: 9.44 µM

SMILES: CCCN1C(CC(C)C)=N[S+](=O)([O-])c2cc(NC(=O)C3CC3)ccc21 [NCGC00510045-01]
AC50 [3]: 3.99e-06 M
Individual replicates / Log AC50 (M) [4]: -5.8486 Log AC50 (M)
AC50 [4]: 0.894 µM
AC50 [5]: 4.32e-06 M
AC50 [6]: 4.32e-06 M
AC50 ([7]; DD2, […], averaged from three independent replicates, top concentration 29 µM, read-out: Average AC50 (Log[M]), NCGC00473217 clone F06 (Cytb V259L) (converted)): 3.05e-06 M
AC50 ([8]; DD2, […], averaged from three independent replicates, top concentration 29 µM, read-out: Average AC50 (Log[M]), NCGC00473217 clone G08 (Cytb F123L) (converted)): 1.12e-05 M
AC50 [9]: 1.22e-06 M
Individual replicates / Log AC50 (M) [10]: -5.2986 Log AC50 (M) and -5.4486 Log AC50 (M)
AC50 ([10]; read-out: Individual replicates / Log AC50 (converted)): 3.99 µM

SMILES: O=C(O)COc1ccc(-c2nccc(-c3cccs3)n2)cc1 [MLS000331320-01]
AC50 [1]: 6.81 µM

SMILES: CC(C)(C)OC(=O)N1CCc2nc(C3CC3)nc(O)c2CC1 [NCGC00510066-01]
AC50 ([7]; DD2, cytochrome b mutant line, third value triple, c9, […], read-out: log AC50, mean (converted)): 8.93e-09 M
AC50 ([8]; DD2, cytochrome b mutant line, fifth value triple, c15, […], read-out: log AC50, mean (converted)): 2.99e-06 M
AC50 [9]: 8.94e-06 M

SMILES: Cc1ccoc1C(=O)Nc1ccc(CC(=O)O)cc1 [MLS000122814-01]
AC50 [1]: 12.1 µM

SMILES: O=C(COc1ccc2ccccc2c1)Nc1nccs1 [MLS000718732-01]
AC50 [1]: 8.57 µM

SMILES: COC(=O)c1nn(-c2ccc3c(c2)CCN3C(C)=O)cc1O [MLS000565173-01]
AC50 [1]: 10.8 µM

SMILES: O=C1C(c2ccc(C(F)(F)F)cc2)=C(Nc2ccc(Cl)cc2)c2ccccc21 [NCGC00107304-01]
Individual replicates / Log AC50 (M) [4]: -6.0986 Log AC50 (M)
AC50 [4]: 0.564 µM
AC50 [9]: 7.1e-07 M
Max Resp (signal direction of the dose response) ([11]; Decrease = decreasing P. berghei viability with dose, Increase = increasing signal, Inactive = no dose response): Decrease
AC50 ([11]; Hill fit, 50% of maximum activity response, read-out: AC50): 0.282 µM
Log AC50 (M) ([11]; log10 of molar AC50 from Hill fit): -6.550 M
AC50 ([11]; Plasmodium berghei, Hill fit, 50% of maximum activity response, read-out: AC50): 0.158 µM
AC50 ([11]; Plasmodium berghei, log10 of molar AC50 from Hill fit, read-out: Log AC50 (converted)): 0.158 µM
Individual replicates / Log AC50 (M) [10]: -5.0986 Log AC50 (M) and -5.1486 Log AC50 (M) and -5.3986 Log AC50 (M)
Max Resp (signal direction of the dose response) [12]: Inactive
AC50 [2]: 1.5 µM

SMILES: Cc1ccc2[nH]c(-c3sc4nc(C)ccc4c3N)nc2c1 [MLS000547128-01]
AC50 [1]: 12.1 µM

SMILES: Cc1ccc2nc(N3C(=O)CNC3=S)sc2c1 [MLS000768544-01]
AC50 [1]: 10.8 µM
